Results from US20220306617A1, “SUBSTITUTED 1,3-PHENYL HETEROARYL DERIVATIVES AND THEIR USE IN THE TREATMENT OF DISEASE” (NOVARTIS AG, priority 2019, published 2022).
pEC50: −log10 of the molar value. Several values for one entry are separate records, joined by “and”; a condition that tells them apart may be missing. Equal entries are not always repeated.

Molecular target: T1, abc isoform of human TMEM16A channel expressed in CHO cells (Homo sapiens, UniProt Q5XXA6, DEL476-501)
T1 construct: expressed in transfected cells; host or cells: CHO cells, doxycycline-inducible expression under Blasticidin/Zeocin selection
T1 sequence (Q5XXA6 with tags, fused parts or gaps isoform Q5XXA6-5 DEL539-564): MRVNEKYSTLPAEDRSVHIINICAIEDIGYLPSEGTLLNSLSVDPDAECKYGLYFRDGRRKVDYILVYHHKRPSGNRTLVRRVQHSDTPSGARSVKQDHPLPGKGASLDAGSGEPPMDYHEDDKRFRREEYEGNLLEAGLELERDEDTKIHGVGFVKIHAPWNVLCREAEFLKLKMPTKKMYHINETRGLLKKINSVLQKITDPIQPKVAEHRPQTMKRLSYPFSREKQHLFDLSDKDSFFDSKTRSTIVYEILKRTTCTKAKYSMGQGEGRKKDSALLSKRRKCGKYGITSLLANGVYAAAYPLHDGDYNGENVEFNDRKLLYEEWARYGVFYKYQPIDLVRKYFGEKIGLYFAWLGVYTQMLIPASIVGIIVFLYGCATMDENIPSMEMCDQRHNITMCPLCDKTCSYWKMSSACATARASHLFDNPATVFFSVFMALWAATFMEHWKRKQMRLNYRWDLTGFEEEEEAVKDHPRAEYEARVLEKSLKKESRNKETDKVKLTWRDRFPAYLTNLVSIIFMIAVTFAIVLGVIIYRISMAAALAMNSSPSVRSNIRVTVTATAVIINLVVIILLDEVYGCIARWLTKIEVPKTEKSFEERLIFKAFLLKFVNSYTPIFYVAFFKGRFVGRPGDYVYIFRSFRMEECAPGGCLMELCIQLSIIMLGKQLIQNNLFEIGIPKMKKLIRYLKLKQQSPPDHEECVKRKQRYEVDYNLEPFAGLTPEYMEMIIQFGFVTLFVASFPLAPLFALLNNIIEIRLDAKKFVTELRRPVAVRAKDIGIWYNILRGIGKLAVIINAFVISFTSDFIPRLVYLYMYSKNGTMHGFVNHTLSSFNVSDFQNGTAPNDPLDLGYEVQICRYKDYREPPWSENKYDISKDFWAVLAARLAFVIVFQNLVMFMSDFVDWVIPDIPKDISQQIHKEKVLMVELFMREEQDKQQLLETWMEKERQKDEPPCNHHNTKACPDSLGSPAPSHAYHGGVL
Assay: Automated patch clamping (QPatch) assay to measure TMEM16A activity in whole-cell
Type: cell-based
Conditions: for pEC50: CHO cells expressing human TMEM16A (abc), whole-cell automated patch clamp, Hill fit, read-out: TMEM16A QPATCH assay EC50 V3 EC50; for Emax: CHO, read-out: TMEM16A QPATCH assay EC50 V3 Assay Window (% TMEM16A max activation); for Emax / TMEM16A QPATCH assay EC50 V3 Assay Window (% TMEM16A max activation): maximum current at highest dose relative to reference potentiator at maximal concentration (upper limit) and vehicle (lower limit)
Method in brief: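 Whole-cell currents were recorded by planar automated patch clamp from induced CHO cells (doxycycline 1 μg/mL, 18-24 h), using a −70 mV hold, +70 mV step and −90 to +70 mV ramp. Values: Hill-fitted EC50, and activation scaled between vehicle current and reference-potentiator maximum; 0.3% DMSO final.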

| pEC50 | Emax | TMEM16A QPATCH assay EC50 V3 Assay Window (% TMEM16A max activation) | Compound |
| --- | --- | --- | --- |
| 6.17 | 125% |  | CCOC(=O)[C@@H](NC(=O)c1cnc(-c2cccc(-c3cc(C(=O)N[C@@H](C)C4CC4)n(CCO)n3)c2)o1)C(C)C [Example 4.2, (S)-Ethyl 2-(2-(3-(5-(((S)-1-Cyclopropylethyl)Carbamoyl)-1-(2-Hydroxyethyl)-1H-Pyrazol-3-Yl)Phenyl)Oxazole-5-Carboxamido)-3-Methylbutanoate] |
| 7.40 | 94% |  | CCC(CC)NC(=O)c1cnc(-c2cccc(-c3cc(C(=O)NC(CC)C(C)C)n[nH]3)c2)o1 (centres unmarked) [Example 3.29, 2-(3-(3-((2-Methylpentan-3-Yl)Carbamoyl)-1H-Pyrazol-5-Yl)Phenyl)-N-(Pentan-3-Yl)Oxazole-5-Carboxamide] |
| 6.23 | 91% |  | CCC(CC)NC(=O)c1cnc(-c2cccc(-c3cc(C(=O)N[C@@H](C)COC)n[nH]3)c2)o1 [Example 3.11, (S)-2-(3-(3-((1-Methoxypropan-2-Yl)Carbamoyl)-1H-Pyrazol-5-Yl)Phenyl)-N-(Pentan-3-Yl)Oxazole-5-Carboxamide] |
| 7.70 | 118% |  | CCC(CC)NC(=O)c1cnc(-c2cccc(-c3cc(C(=O)NC(C)(C)C4CC4)n[nH]3)c2)o1 [Example 3.7, 2-(3-(3-((2-Cyclopropylpropan-2-Yl)Carbamoyl)-1H-Pyrazol-5-Yl)Phenyl)-N-(Pentan-3-Yl)Oxazole-5-Carboxamide] |
| 7.10 | 155% |  | CCC(CC)NC(=O)c1cnc(-c2cccc(-c3cc(C(=O)N[C@@H](C)C4CC4)n(CC(O)C(F)(F)F)n3)c2)o1 (stereo partly drawn) [Example 9.1, 2-(3-(5-(((S)-1-Cyclopropylethyl)Carbamoyl)-1-(3,3,3-Trifluoro-2-Hydroxypropyl)-1H-Pyrazol-3-Yl)Phenyl)-N-(Pentan-3-Yl)Oxazole-5-Carboxamide] |
| 7.30 | 99% |  | CCC(CC)NC(=O)c1cnc(-c2cccc(-c3cc(C(=O)NC(C)(C4CC4)C(F)(F)F)n[nH]3)c2)o1 (centres unmarked) [Example 3.8, 2-(3-(3-((2-Cyclopropyl-1,1,1-Trifluoropropan-2-Yl)Carbamoyl)-1H-Pyrazol-5-Yl)Phenyl)-N-(Pentan-3-Yl)Oxazole-5-Carboxamide] |

The remaining lines, values behind:

| Compound | pEC50 | Emax | TMEM16A QPATCH assay EC50 V3 Assay Window (% TMEM16A max activation) |
| --- | --- | --- | --- |
| CCOC(=O)[C@@H](NC(=O)c1cnc(-c2cccc(-c3cc(C(=O)NC(CC)CC)n[nH]3)c2)o1)C(C)C [Example 1.1, (S)-Ethyl 3-Methyl-2-(2-(3-(3-(Pentan-3-Ylcarbamoyl)-1 H-Pyrazol-5-Yl)Phenyl)Oxazole-5-Carboxamido)Butanoate] | 7.70 and 8.00 | 90% | 100% |
| CCC(CC)NC(=O)c1cc(-c2cccc(-c3ncc(C(=O)NCC(=O)OC(C)C)o3)c2)[nH]n1 [Example 1.32, Isopropyl 2-(2-(3-(3-(Pentan-3-Ylcarbamoyl)-1 H-Pyrazol-5-yl)Phenyl)Oxazole-5-Carboxamido)Acetate] | 6.06 | 77% |  |
| CCC(CC)NC(=O)c1cnc(-c2cccc(-c3cc(C(=O)NC(C4CC4)C4CCCO4)n[nH]3)c2)o1 (single isomer, unassigned) [Example 3.4 (ii), 2-(3-(3-((Cyclopropyl(Tetrahydrofuran-2-Yl)Methyl)Carbamoyl)-1H-Pyrazol-5-Yl)Phenyl)-N-(Pentan-3-Yl)Oxazole-5-Carboxamide] | 6.59 |  | 115% |
| CCC(CC)NC(=O)c1cc(-c2cccc(-c3ncc(C(=O)Nc4ccon4)o3)c2)[nH]n1 [Example 1.30, N-(Isoxazol-3-Yl)-2-(3-(3-(Pentan-3-Ylcarbamoyl)-1 H-Pyrazol-5-yl)Phenyl)Oxazole-5-Carboxamide] | 6.06 | 62% |  |
| CCC(CC)NC(=O)c1cnc(-c2cccc(-c3cc(C(=O)NC(C4CC4)C4CCCO4)n[nH]3)c2)o1 (single isomer, unassigned) [Example 3.4 (i), 2-(3-(3-((Cyclopropyl(Tetrahydrofuran-2-Yl)Methyl)Carbamoyl)-1H-Pyrazol-5-Yl)Phenyl)-N-(Pentan-3-Yl)Oxazole-5-Carboxamide] | 6.15 |  | 90% |
